Source: article PMC8880564, “Design, Synthesis, and Biological Evaluation of a Novel VEGFR-2 Inhibitor Based on a 1,2,5-Oxadiazole-2-Oxide Scaffold with MAPK Signaling Pathway Inhibition” (Pharmaceuticals, 2022)
Where “and” joins values, the source holds several entries; their conditions need not be identical. Identical values can stand only once.

Experiments:
HepG2 cells [1] = experiment: Intracellular measurement of NO by DAF-FM diacetate flow cytometry; format: cell-based, human; conditions: HepG2, 11 µM, 1 h, DAF-FM DA; DMSO 0.1%
Protocol: The NO-releasing properties of 12b were evaluated by measuring the level of intracellular NO by flow cytometry, using a cell-permeable and photo-stable NO fluorescent indicator, 3-Amino-4-aminomethyl-2’,7’-difluorofluorescein diacetate (DAF-FM DA), with a detection limit of ~3 nM. DAF-FM diacetate penetrates the cells and is deacetylated by esterase enzyme to yield a non-fluorescent dye, DAF-FM, which, upon reaction with NO, produces a fluorescent benzotriazole product. Compound 12b was efficiently able to increase the production of NO in the treated cells (9.9% vs. 0.1% in DMSO-treated cells; Figure 9). Furthermore, compound 12b increased NO production as efficiently as the positive control reference drug JS-k.
HepG2 cells were collected, and the number was adjusted at 10^6 cells/test, and then they were stained with 5 µM DAF-FM™ diacetate (Invitrogen, Cat. No. D-23844) for 60 min at 37 °C and 5% CO2. After that, the stained cells were washed to remove the excess probe, and then were re-incubated for another 30 min. Following that, the stained cells were treated either with 12b (5.5 or 11 µM) or JS-K as a positive nitric oxide donor or DMSO as a negative control for another 1 h. The fluorescence was detected by flow cytometry using the FITC detection system in a BD flow Cytometer.

HepG2 cells [2] = experiment: Cell-cycle analysis by flow cytometry (PI); format: cell-based, human; conditions: HepG2, 48 h; 5.6 in DMSO-treated cells
Protocol: The mechanism of action of 12b was investigated by evaluating its effectiveness in modulating the cell cycle and induction of apoptosis.
According to Gray et al., HepG2 cells were seeded in a 6-well plate (2 mL/well) and incubated at 37 °C and 5% CO2 for 12 h. Cell synchronization at the G1 phase was performed by incubating the cells with serum-free medium for 12 h, then cells were treated with 5.5 or 11 μM of 12b. After 48 h of incubation, cells were washed twice with ice-cold 1× PBS and subjected to trypsinization. The detached cells were centrifuged at 500× g for 5 min at 4 °C. Then, the cell pellet was resuspended in ice-cold 1× PBS and fixed with absolute ethanol. After 2 h of incubation at −20 °C, the fixed cells were washed with ice-cold 1× PBS. The cell pellet was resuspended in propidium (PI)/RNase (BD Biosciences, BDB550825, Franklin Lakes, NJ, USA) and incubated for 30 min at room temperature (RT) in the dark, then the DNA content in each phase was measured by flow cytometry using BD FACS Calibur.

VEGFR-2 = VEGFR-2 (Homo sapiens, UniProt P35968); experiment: VEGFRx kinase assay (BPS Bioscience kit); conditions: VEGFR-2 inhibitory activity IC50, duplicate, luminescence kinase kit
Protocol: The kinase assay was performed according to BPS Bioscience® kinase assay kit protocols [17, 74, 75, 76, 77]. […] The master mixture (25 μL) was added to every well then inhibitor solution of each well, labeled as “Test Inhibitor”, was added. For the “Positive Control” and “Blank”, the same solution without inhibitor (Inhibitor buffer) was added. To the wells designated as “Blank”, 1x Kinase Buffer 1 was added. FLT1/VEGFR2/FLT3 enzyme was thawed on ice and diluted with 1x Kinase Buffer 1 then added to the wells designated “Positive Control” and “Test Inhibitor Control”. The plate was incubated at 30 °C for 45 min then ADP-Glo reagent/Kinase-Glo Max reagent was added to each well. The plate was covered with aluminum foil and incubated at room temperature for 15 min. The luminescence was measured using the microplate reader. In case of FLT1 and FLT3, the plate was incubated for 45 min, then Kinase Detection reagent was added to each well and the plate was covered with aluminum foil and incubated at room temperature for another 45 min. The luminescence was measured immediately using the Tecan–spark® reader. A “Blank” value was subtracted from all readings.

A2780CP = experiment: MTT cell viability assay; format: cell-based; conditions: Homo sapiens, A2780C/P, Ovarian, 48 h, ± SD of triplicates
Protocol: (§1) In addition, the morphological changes in 12b-treated cancer cell lines at concentrations of 6.25 and 12.50 µM are shown in Figure 6.
(§2) According to the procedures of Skehan et al. (with minor modifications), the cancer or normal cells were seeded in a 96-well plate (100 µL/well). After overnight incubation at 37 °C and 5% CO2, the cells were incubated with 50 µM of each tested compound or DMSO (0.5% v/v). After 48 h of incubation, MTT (3-(4,5-dimethylthiazoyl)-2,5-diphenyl-tetrazolium bromide) 5 mg/mL Phosphate-Buffered Saline (PBS) was added, and the plate was incubated for 4 h. After that, acidified sodium dodecyl sulfate (SDS) solution (10% SDS containing 0.01N HCl in 1× PBS) was used to solubilize formazan crystals. The absorbance was measured after 14 h of incubation at λ570–630 nm by a Biotek plate reader (Gen5™).

SKOV-3 = experiment: MTT cell viability assay; format: cell-based; conditions: Homo sapiens, SK-OV-3, Ovarian, 48 h, ± SD of triplicates
Protocol: as §1, §2

A2780 = experiment: MTT cell viability assay; format: cell-based; conditions: Homo sapiens, Ovarian, 48 h, ± SD of triplicates
Protocol: as §1, §2

HT-29 = experiment: MTT cell viability assay; format: cell-based; conditions: Homo sapiens, Colon, 48 h, ± SD of triplicates
Protocol: as §1, §2

MDA-MB-231 = experiment: MTT cell viability assay; format: cell-based; conditions: Homo sapiens, Breast, 48 h, ± SD of triplicates
Protocol: as §1, §2

MCF-7 = experiment: MTT cell viability assay; format: cell-based; conditions: Homo sapiens, MCF7, Breast, 48 h, ± SD of triplicates
Protocol: as §1, §2

HepG2 = experiment: MTT cell viability assay; format: cell-based; conditions: Homo sapiens, Liver, 48 h, ± SD of triplicates
Protocol: as §1, §2

Bax = experiment: Quantitative RT-PCR for gene expression in HepG2 cells; format: cell-based, human; conditions: HepG2, 12 h
Source text: (§3) Epithelial cells express specific genes involved in maintaining apical–basal polarity and adherence, such as epithelial E-cadherin. The epithelial cells migrate to distant locations by over-expressing mesenchymal genes, including neuronal N-cadherin and vimentin [58]. Cancer aggressiveness has been positively correlated with the over-expression of N-cadherin. Therefore, in this study, the partial mechanism of activity of 12b was investigated, by quantitative RT-PCR, with respect to E-cadherin and N-cadherin. […] Additionally, the ability of 12b was confirmed by detecting the change in expression of both pro-apoptotic (Bax) and anti-apoptotic (BCL-2) genes. Compound 12b-treated HepG2 cells (for 12 h) expressed a low level of BCL-2 and over-expressed Bax (Figure 11A).
(§4) HepG2 cells were treated either with DMSO, 5.5 or 11 µM of 12b for 12 h, and then the total RNA was extracted by TRIzol™ Reagent (Invitrogen, Cat. No. 15596018). The RNA concentration and purity were evaluated using a Thermo Scientific™ NanoDrop™ One Microvolume UV-Vis Spectrophotometer. Four µg RNA was reverse transcribed to cDNA using the RevertAid First Strand cDNA Synthesis kit. The level of N-cadherin, E-cadherin, BCL-2, Bax, and GAPDH was detected using the SensiFAST™ SYBR® High-ROX Kit with the StepOne™ Real-Time PCR System (Applied Biosystems™). The expression level was firstly normalized to the level of GAPDH, then calculated as 2^−(ΔΔCt), where ΔCt 12b = (Ct […] Ct GAPDH); ΔCt DMSO = (Ct DMSO ™ Ct GAPDH); ΔΔCt = (ΔCt 12b ™ ΔCt DMSO). Ct is the cycle threshold.

E-cadherin = experiment: as above; format: cell-based, human; conditions: HepG2, 5.5 or 11 µM, 12 h
Source text: as §3, §4

N-cadherin = experiment: as above; format: cell-based, human; conditions: HepG2, 5.5 or 11 µM, 12 h
Source text: as §3, §4

BCL-2 = experiment: as above; format: cell-based, human; conditions: HepG2, 12 h
Source text: as §3, §4

VEGFR-2, sequence (P35968 789-1356 limits assumed): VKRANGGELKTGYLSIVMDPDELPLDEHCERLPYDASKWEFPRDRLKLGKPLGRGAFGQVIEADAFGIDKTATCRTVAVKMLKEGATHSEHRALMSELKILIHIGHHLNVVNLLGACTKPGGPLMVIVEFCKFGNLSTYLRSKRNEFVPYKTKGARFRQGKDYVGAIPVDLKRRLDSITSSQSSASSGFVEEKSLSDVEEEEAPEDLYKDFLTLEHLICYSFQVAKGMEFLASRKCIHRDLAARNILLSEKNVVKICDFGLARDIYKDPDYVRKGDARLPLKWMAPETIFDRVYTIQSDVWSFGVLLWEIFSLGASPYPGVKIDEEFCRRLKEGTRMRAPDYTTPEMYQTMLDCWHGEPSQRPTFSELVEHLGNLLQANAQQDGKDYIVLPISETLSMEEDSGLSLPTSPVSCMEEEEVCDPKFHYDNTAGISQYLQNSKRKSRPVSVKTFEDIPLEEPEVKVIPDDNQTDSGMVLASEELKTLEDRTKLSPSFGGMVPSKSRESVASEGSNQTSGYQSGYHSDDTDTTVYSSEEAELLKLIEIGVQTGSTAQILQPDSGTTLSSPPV

[O-][n+]1onc(-c2ccccc2)c1CNc1ccc(Nc2nc(C(F)(F)F)nc3c2cnn3-c2ccc(Br)cc2)cc1 [12b, 3-(((4-((1-(4-bromophenyl)-6-(trifluoromethyl)-1H-pyrazolo[3,4-d]pyrimidin-4-yl)amino)phenyl)amino)methyl)-4-phenyl-1,2,5-oxadiazole 2-oxide]
intracellular NO production (P2) (HepG2 cells [1]): 9.9% | cell-cycle arrest at subG1 (HepG2 cells [2]): 24 | IC50 (VEGFR-2): 92 nM and 90 nM | IC50 (A2780CP): 11.6 ± 0.1 µM | IC50 (SKOV-3): 18.6 ± 0.2 µM | IC50 (A2780): 15 ± 0.15 µM | IC50 (HT-29): 15 ± 0.24 µM | IC50 (MDA-MB-231): 13 ± 0.2 µM | IC50 (MCF-7): 22.3 ± 0.3 µM | IC50 (HepG2): 11.5 ± 0.5 µM | expression of Bax (Bax): over-expressed | expression of epithelial E-cadherin (E-cadherin): increased expression | expression of neuronal N-cadherin (N-cadherin): lower expression | expression of BCL-2 (BCL-2): low level
